Data taken from ChEMBL document CHEMBL5665443, “Enzyme Inhibitor Single Concentration assay results for EUbOPEN Chemogenomics Library” (2024).
*1 amine or outer side, *2 acyl side, *3 side chain or, on linkers, in order; H or OH if unused. Where a SMILES comes first, the peptide text is derived from it. Bridges are numbered along the chain shown (N, C = ends). X1 = O=C(CCC[*:2])[*:1]

Assays:
Conditions in all cases: Compound Concentration 10.0 uM, Hit No
[1] = molecular target: DNA-3-methyladenine glycosylase (Homo sapiens) (UniProt P29372);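 further: enzyme assay where MPG cuts a quenched duplex DNA oligonucleotide probe, paired with APE1 for strand incision and turnover, read as fluorescence at 594 nm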
Description: Inhibition of MPG by quantifying inhibition of MPG-mediated cleavage and dissociation of quenched duplex DNA oligonucleotides, measured as fluorescence at 594 nm. To generate a functional strand incision and increase turn-over this assay is coupled to APE1.

[2] = molecular target: T1, Endonuclease III-like protein 1 (Homo sapiens) (UniProt P78549);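 further: enzyme assay tracking NTHL1 cutting and release of a quenched double-stranded DNA oligo substrate, read as fluorescence at 594 nm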
T1 sequence (whole entry): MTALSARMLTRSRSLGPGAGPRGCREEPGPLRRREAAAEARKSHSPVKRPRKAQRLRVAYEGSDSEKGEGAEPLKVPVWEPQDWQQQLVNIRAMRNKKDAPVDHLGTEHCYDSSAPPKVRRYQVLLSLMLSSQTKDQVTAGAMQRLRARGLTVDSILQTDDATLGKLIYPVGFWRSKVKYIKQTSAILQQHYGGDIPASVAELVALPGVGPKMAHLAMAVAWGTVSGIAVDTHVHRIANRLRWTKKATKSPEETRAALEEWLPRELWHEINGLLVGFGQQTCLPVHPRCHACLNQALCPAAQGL
Description: Inhibition of NTHL1 by quantifying inhibition of NTHL1-mediated cleavage and dissociation of quenched duplex DNA oligonucleotides, measured as fluorescence at 594 nm.

[3] = molecular target: Endonuclease 8-like 1 (Homo sapiens) (UniProt Q96FI4);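 further: fluorescence at 594 nm from quenched duplex DNA oligonucleotides released by NEIL1 cleavage and strand separation, reported as reduction of this enzyme activity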
Description: Inhibition of NEIL1 by quantifying inhibition of NEIL1-mediated cleavage and dissociation of quenched duplex DNA oligonucleotides, measured as fluorescence at 594 nm.

[4] = molecular target: N-glycosylase/DNA lyase (Homo sapiens) (UniProt O15527);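 further: OGG1 cleavage of a quenched duplex DNA oligonucleotide, coupled to APE1 for strand incision, read as fluorescence at 594 nm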
Description: Inhibition of OGG1 by quantifying inhibition of OGG1-mediated cleavage and dissociation of quenched duplex DNA oligonucleotides, measured as fluorescence at 594 nm. To generate a functional strand incision and increase turn-over this assay is coupled to APE1.

[5] = molecular target: T2, Endonuclease 8-like 2 (Homo sapiens) (UniProt Q969S2);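 further: fluorescence at 594 nm reports NEIL2 cutting and release of a quenched double-stranded DNA oligo substrate, reduced signal read as inhibition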
T2 sequence (whole entry): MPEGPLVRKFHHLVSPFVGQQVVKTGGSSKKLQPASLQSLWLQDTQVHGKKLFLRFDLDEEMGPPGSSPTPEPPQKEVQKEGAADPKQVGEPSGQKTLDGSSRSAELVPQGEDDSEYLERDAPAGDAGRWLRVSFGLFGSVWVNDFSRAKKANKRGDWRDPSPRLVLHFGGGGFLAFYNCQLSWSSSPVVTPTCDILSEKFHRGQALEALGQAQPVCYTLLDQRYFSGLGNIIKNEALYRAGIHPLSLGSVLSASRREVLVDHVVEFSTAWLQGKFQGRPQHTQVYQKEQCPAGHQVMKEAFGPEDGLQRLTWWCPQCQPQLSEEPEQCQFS
Description: Inhibition of NEIL2 by quantifying inhibition of NEIL2-mediated cleavage and dissociation of quenched duplex DNA oligonucleotides, measured as fluorescence at 594 nm.

[6] = molecular target: T3, Adenine DNA glycosylase (Homo sapiens) (UniProt Q9UIF7);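 further: human MUTYH activity read as 594 nm fluorescence from cleavage and release of a quenched DNA duplex, coupled with APE1 for strand incision, lower signal meaning inhibition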
T3 sequence (whole entry): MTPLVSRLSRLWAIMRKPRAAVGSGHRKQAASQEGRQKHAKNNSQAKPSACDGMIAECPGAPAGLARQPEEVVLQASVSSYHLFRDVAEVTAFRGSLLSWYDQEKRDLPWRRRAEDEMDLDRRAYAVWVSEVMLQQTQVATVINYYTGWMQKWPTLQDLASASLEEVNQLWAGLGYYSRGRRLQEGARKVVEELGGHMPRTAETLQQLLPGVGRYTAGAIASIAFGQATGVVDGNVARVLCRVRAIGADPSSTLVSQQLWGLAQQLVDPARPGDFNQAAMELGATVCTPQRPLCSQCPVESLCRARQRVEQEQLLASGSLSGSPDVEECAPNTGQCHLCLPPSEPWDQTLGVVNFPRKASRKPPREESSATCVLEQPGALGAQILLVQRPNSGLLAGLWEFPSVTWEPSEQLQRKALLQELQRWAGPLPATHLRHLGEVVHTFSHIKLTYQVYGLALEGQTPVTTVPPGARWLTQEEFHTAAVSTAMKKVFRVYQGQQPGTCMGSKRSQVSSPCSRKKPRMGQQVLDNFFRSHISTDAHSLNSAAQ
Description: Inhibition of MUTYH by quantifying inhibition of MUTYH-mediated cleavage and dissociation of quenched duplex DNA oligonucleotides, measured as fluorescence at 594 nm. To generate a functional strand incision and increase turn-over this assay is coupled to APE1.

[7] = molecular target: Methyl-CpG-binding domain protein 4 (Homo sapiens) (UniProt O95243);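 further: MBD4 activity read as fluorescence at 594 nm from cleavage and release of a quenched duplex DNA oligonucleotide, with APE1 coupled to incise the strand and raise turnover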
Description: Inhibition of MBD4 by quantifying inhibition of MBD4-mediated cleavage and dissociation of quenched duplex DNA oligonucleotides, measured as fluorescence at 594 nm. To generate a functional strand incision and increase turn-over this assay is coupled to APE1.

[8] = molecular target: G/T mismatch-specific thymine DNA glycosylase (Homo sapiens) (UniProt Q13569);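 further: human TDG cleavage of quenched duplex DNA oligonucleotides coupled to APE1, strand release read as fluorescence at 594 nm, inhibition of TDG activity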
Description: Inhibition of TDG by quantifying inhibition of TDG-mediated cleavage and dissociation of quenched duplex DNA oligonucleotides, measured as fluorescence at 594 nm. To generate a functional strand incision and increase turn-over this assay is coupled to APE1.

[9] = molecular target: Uracil-DNA glycosylase (Homo sapiens) (UniProt P13051);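 further: UNG excision on a quenched double-stranded DNA oligo probe, with APE1 added for strand incision and turnover, read as fluorescence at 594 nm as strands separate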
Sequence of Uracil-DNA glycosylase (Homo sapiens) (P13051 whole entry): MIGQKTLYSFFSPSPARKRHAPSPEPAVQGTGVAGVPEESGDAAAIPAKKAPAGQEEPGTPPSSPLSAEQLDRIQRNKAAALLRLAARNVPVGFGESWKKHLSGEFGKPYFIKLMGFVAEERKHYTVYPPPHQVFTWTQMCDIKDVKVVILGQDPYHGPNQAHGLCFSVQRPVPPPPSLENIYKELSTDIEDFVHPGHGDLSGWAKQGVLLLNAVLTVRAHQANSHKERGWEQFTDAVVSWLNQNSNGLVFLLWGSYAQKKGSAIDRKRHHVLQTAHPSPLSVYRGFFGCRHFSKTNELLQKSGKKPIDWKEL
Description: Inhibition of UNG by quantifying inhibition of UNG-mediated cleavage and dissociation of quenched duplex DNA oligonucleotides, measured as fluorescence at 594 nm. To generate a functional strand incision and increase turn-over this assay is coupled to APE1.

Sequence of G/T mismatch-specific thymine DNA glycosylase (Homo sapiens) (Q13569 whole entry): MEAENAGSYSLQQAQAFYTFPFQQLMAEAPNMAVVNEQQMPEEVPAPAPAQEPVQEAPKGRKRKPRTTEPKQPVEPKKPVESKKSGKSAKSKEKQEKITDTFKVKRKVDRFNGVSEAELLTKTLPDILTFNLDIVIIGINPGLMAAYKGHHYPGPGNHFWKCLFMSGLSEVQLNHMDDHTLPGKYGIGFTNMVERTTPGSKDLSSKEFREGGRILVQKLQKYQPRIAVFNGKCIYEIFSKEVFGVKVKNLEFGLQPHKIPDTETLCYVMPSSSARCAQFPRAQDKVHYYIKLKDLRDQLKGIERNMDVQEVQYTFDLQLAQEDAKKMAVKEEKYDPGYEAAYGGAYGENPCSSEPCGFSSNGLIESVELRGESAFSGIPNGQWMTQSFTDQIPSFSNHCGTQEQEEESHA
Sequence of DNA-3-methyladenine glycosylase (Homo sapiens) (P29372 whole entry): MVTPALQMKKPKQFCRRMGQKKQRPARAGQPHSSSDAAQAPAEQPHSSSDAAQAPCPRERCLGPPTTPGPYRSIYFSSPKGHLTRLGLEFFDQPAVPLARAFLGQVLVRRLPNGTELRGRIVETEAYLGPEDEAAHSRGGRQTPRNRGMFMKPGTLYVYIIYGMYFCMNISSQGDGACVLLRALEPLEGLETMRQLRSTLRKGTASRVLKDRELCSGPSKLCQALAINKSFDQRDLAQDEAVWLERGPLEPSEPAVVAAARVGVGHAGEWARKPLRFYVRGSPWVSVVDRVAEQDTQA
Sequence of Methyl-CpG-binding domain protein 4 (Homo sapiens) (O95243 whole entry, the tested form may be a part): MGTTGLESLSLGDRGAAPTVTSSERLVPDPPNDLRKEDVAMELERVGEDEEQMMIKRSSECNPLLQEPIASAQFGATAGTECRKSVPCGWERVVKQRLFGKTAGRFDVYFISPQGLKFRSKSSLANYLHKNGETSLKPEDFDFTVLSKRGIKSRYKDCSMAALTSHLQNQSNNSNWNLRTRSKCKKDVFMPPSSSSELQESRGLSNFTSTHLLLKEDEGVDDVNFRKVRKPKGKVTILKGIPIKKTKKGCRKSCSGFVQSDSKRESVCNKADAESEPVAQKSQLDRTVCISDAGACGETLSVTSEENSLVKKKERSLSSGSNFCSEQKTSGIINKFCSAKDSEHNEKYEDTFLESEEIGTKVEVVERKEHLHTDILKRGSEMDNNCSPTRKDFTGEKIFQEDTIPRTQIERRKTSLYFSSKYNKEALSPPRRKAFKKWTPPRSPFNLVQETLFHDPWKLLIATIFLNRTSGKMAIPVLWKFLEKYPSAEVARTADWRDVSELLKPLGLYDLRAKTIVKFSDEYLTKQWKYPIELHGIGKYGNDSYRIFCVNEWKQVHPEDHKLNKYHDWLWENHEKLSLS
Sequence of N-glycosylase/DNA lyase (Homo sapiens) (O15527 whole entry): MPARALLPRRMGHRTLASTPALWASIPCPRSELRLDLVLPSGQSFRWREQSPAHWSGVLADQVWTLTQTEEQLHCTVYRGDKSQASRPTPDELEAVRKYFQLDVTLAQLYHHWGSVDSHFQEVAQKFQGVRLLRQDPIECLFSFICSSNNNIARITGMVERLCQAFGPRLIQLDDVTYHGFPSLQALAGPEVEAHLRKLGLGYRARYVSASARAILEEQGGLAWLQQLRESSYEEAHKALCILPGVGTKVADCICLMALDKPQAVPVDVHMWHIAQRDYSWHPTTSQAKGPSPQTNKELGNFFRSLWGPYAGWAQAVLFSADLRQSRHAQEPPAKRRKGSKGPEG
Sequence of Endonuclease 8-like 1 (Homo sapiens) (Q96FI4 whole entry): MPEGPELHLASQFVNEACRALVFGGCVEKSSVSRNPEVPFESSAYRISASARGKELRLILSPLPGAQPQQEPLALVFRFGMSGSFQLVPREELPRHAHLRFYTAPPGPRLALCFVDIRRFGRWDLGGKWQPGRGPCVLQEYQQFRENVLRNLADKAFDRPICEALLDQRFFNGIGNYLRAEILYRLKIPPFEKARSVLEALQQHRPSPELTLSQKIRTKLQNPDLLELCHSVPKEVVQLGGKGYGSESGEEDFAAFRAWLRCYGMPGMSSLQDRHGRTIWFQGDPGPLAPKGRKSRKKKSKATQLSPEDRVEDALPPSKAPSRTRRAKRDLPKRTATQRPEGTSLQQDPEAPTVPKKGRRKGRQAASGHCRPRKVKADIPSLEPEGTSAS

SMILES	inhibition [1]	inhibition [2]	inhibition [3]	inhibition [4]	inhibition [5]	inhibition [6]	inhibition [7]	inhibition [8]	inhibition [9]
CC1(C)CC(=O)c2c(SCCO)sc(-c3nccs3)c2C1	8.86%	28.6%	-2.21%	-7.89%	1.94%	15.5%	23.5%	13.8%	-4.5%
CCCCC(=O)N(Cc1ccc(-c2ccccc2C(=O)O)cc1)c1ccccc1	11.5%	7.17%	1.79%	-7.96%	-3.15%	18%	33.4%	23.9%	-5.18%
CN1CCc2cc(Cl)c(O)cc2[C@@H](c2ccccc2)C1	10.9%	4.7%	-6.51%	-2.12%	3.22%	14.8%	14.5%	3.73%	-3.84%
Cn1c(=O)n(CCCO)c(=O)c2c1nc(Oc1cccc(Cl)c1)n2Cc1ccc(Cl)cc1	11.6%	12.1%	2.53%	-1.16%		15.9%	23.2%	8.76%	0.363%
CN(C)CCn1cc(S(=O)(=O)c2cccc(F)c2)c2cccnc21	4.26%	10.5%	-6.66%	-9.57%		1.09%	7%	2.84%	-6.74%
O=C(O)CCC/C=C\C[C@H]1C(=O)C[C@@H](O)[C@@H]1/C=C/[C@@H](O)CCc1ccccc1	-3.36%	14.6%	-9.47%	-5.63%		15.1%	13.3%	20.6%	-6.21%
Cc1nccn1CC1CCc2c(c3ccccc3n2C)C1=O (stereo not given)	13.8%	22%	6.23%	-7.85%		19%	17%	0.598%	-9.34%
CC[C@H](C)[C@@H]1NC(=O)[C@H](Cc2ccc(OC)cc2)NC(=O)CCCSC[C@@H](C(=O)N2CCC[C@H]2C(=O)N[C@@H](CC(C)C)C(=O)NCC(N)=O)NC(=O)[C@H](CC(N)=O)NC(=O)[C@H](CCC(N)=O)NC1=O (Y(Me)IQNCPLG-NH2; linker N-5 via X1)	-9.15%	33.4%	-0.0556%	-9.58%	-7.22%	-1%	-5.48%	-1.9%	
N=C(N)NCCC[C@H](NC(=O)COCC(c1ccccc1)c1ccccc1)C(=O)O	6.97%	9.99%	7.21%	-5.82%	-7.47%	3.99%	-5.83%	-4.14%	
CO[C@H]1CC[C@@H](C(=O)c2ccc3nc4c(cc3c2)CCCO4)CC1	-2.23%	-6.5%	1.35%	-3.26%	8.38%	-9.06%	-6.79%	4.03%	
Nc1nc(Nc2ccccc2)nc2c1ncn2[C@@H]1O[C@H](CO)[C@@H](O)[C@H]1O	-7.65%	1.39%	-6.51%	6.96%		-1.27%	11.6%	10.5%	-5.2%
Cc1cc(NC(=O)NCCN2CCC(O)(Cc3ccccc3)CC2)c2ccccc2n1	-4.68%	-6.04%		-6.59%	-1.88%	17.8%	28.9%	11.4%	-0.672%
CCCCC1=NC2(CCCC2)C(=O)N1Cc1ccc(-c2ccccc2-c2nnn[nH]2)cc1	12.4%	-1.01%	0.241%	-0.701%	5.76%	12.9%	9.56%	11.8%	
CS(=O)(=O)Nc1c(O)ccc2c1CCCC2C1=NCCN1 (stereo not given)	2.87%	13.8%	2.08%	-9.24%		23.1%	17.6%	-0.654%	-0.201%
CN1CCN2c3ccccc3Cc3ccccc3C2C1 (stereo not given)	9.97%	-6.86%	-1.32%	-6.17%		1.87%	11.7%	1.8%	-6.73%
C[N+]1(C)[C@@H]2C[C@@H](OC(=O)C(O)(c3cccs3)c3cccs3)C[C@H]1[C@@H]1O[C@@H]12	-7.84%	7.05%	8.84%	-4.25%	2.01%	9.11%	-8.5%	-0.0311%	
CCCCN(CCCC)C(=O)CN1C[C@@H](c2ccc3c(c2)OCO3)[C@H](C(=O)O)[C@H]1c1ccc(OC)cc1	19.8%	4.86%	-5.1%	2.58%	-2.98%	19.5%	29.1%	32.4%	
FC(F)(F)c1cccc(-c2noc(-c3cc(-c4ccccc4)c(C(F)(F)F)s3)n2)c1	-0.823%	4.86%		-2.17%	-4.73%	1.81%	6.66%	9.3%	
O=c1ccc2c(OCCCCOc3ccccc3)c3ccoc3cc2o1	29.9%	3.87%	-4.29%	3.75%		3.71%	11.1%	-7.24%	-5.58%
CCCCCCCC/C=C\CCCCCCCC(=O)NCc1ccc(O)c(OC)c1	-5.12%	-7.69%		-7.56%		5.55%	18.2%	13.7%	-4.89%
COc1cc(C(C)C)c(Oc2cnc(NC(CO)CO)nc2N)cc1I	-3.99%	6.35%	-4.73%	-8.24%		2%	-6.99%	-1.74%	-4.17%
CCCN[C@H]1CCc2nc(N)sc2C1	-0.406%	22%	-3.55%	-6.43%		13.4%	9.06%	19.3%	-5.95%
CC(C)C[C@@H](NC(=O)[C@H](Cc1ccccc1)NC(=O)CNC(=O)[C@@H](C)NC(=O)[C@@H](N)Cc1ccc(O)cc1)C(=O)O	-5.23%	10.5%		-5.5%		18.5%	20%	20.9%	-7.3%
CC1(C)SSC(C)(C)[C@@H](NC(=O)[C@@H](N)Cc2ccc(O)cc2)C(=O)NCC(=O)N[C@@H](Cc2ccccc2)C(=O)N[C@H]1C(=O)O	7.58%	17.3%	8.1%	-3.29%	9.5%	1.3%	-7.23%	10.6%	
c1ccc(C2CN3CCC2CC3)cc1 (stereo not given)	3.54%	26.2%	0.158%		-3.92%	22.9%	22%	22.8%	-9.01%
